# System: AMPK
# Experiment: AMPK activity assay at cell level (western blot of p-AMPKα and p-ACC in MEFs)
# Assay type: cell-based, mouse
# Conditions: MEF cells, compound 10 nM, 2 h; multiple of the ratio relative to positive control AICAR (3 mM); band brightness by Image J
# Method: The ability of compounds to activate AMPK in mouse embryonic fibroblasts (MEFs) was determined, which could be specifically carried out by detecting the phosphorylation level (p-AMPKα) of threonine at the 172nd position of AMPK and the phosphorylation level (p-ACC) of serine at the 79th position of the susbtrate ACC1/ACC2 of AMPK (FIG. 1 and Table I) by western blot.
# The specific method was as follows: • (1) MEFs with loxP insertion sequences or of wild-type were plated in a 6-well plate and cultured in DMEM containing 10% serum. If a gene needed to be knocked out at this time, when the density of the corresponding MEFs with loxP insertion sequences reached about 30%, an adenovirus capable of expressing cre should be added to the culture well followed by further culture for more than 24 h; • (2) When the cell density was close to 90%, the cells were provided with fresh DMEM, at the same time, a compound (final concentration 10 nM) was added to the cells, followed by culture for 2 h, with an equal volume of DMSO as the negative control, and the cells treated with the addition of AICAR (3 mM) as the positive control; • (3) After sucking up the culture solution, the cells were lysed with 200 μL of a cell lysate (its formulation was given below), then the cells were scraped from the culture dish, ultrasonicated, and subjected to low temperature centrifugation at 20000 g for 10 min; • (4) The supernatant and an equal volume of 2*SDS solution (its formulation was given below) were mixed, and subjected to SDS-PAGE in a concentration of 8%, then the protein was transferred to PVDF membrane; each PVDF membrane was blocked with 25 mL of skim milk for 1 h, and then rinsed with TBST buffer (its formulation was given below) 3 times for 10 min each time; • (5) AMPKα subunit primary antibody (Cell Signaling Technology, #2532), primary antibody of phosphothreonine at the 172nd position of AMPK (Cell Signaling Technology, #2535), ACC primary antibody (Cell Signaling Technology, #3662), or primary antibody of phosphoserine at the 79th position of ACC (Cell Signaling Technology, #3661) was diluted in a ratio of 1:1000 with a primary antibody dilution (its formulation was given below), reacted with the PVDF membrane at room temperature for 12 h, and then rinsed 3 times with TBST buffer; • (6) A 1:1000 dilution of HRP-conjugated goat anti-rabbit secondary antibody (Jackson ImmunoResearch, 111-035-003) was added, reacted at room temperature for 1 h, and then rinsed 3 times with TBST buffer; • (7) The PVDF membrane was dried, reacted in an ECL mixture (WesternBright ECL HRP substrate, Advansta) and subjected to exposure with medical X-ray, developed, finally rinsed, dried, and then scanned to obtain data related to AMPK activation.
# The formulations of reagents used were: • Cell lysate: 20 mM Tris-base, pH 7.5, 150 mM NaCl, 1 mM EDTA, 1 mM EGTA, 2.5 mM Sodium pyrophosphate, 1 mM β-glycerolphosphate, 1% Triton X-100 (v/v); • 2*SDS solution: 20% Glycerol (v/v), 4% SDS (m/v), 10% β-mecaptoethanol (v/v), 0.01% Bromophenol blue (m/v); • TBST buffer: 4.84% Tris-base (m/v), 8% NaCl (m/v), 0.1% Tween-20 (v/v); • Primary antibody dilution: TBST buffer containing 5% BSA (v/v).
SMILES,"Degree of AMPK activation, p-ACC/ACC","Degree of AMPK activation, p-AMPKα/AMPK"
Br.Cc1n(CCCCCCCCCCCCCCCCF)cc[n+]1Cc1c(Cl)cccc1Cl [IA-2],0.73,1.00
Cc1n(CCCCCCCCCCCCCCCCF)cc[n+]1Cc1c(Cl)cccc1Cl.[I-] [IA-3],0.83,0.69
FC(F)(F)C(F)(F)C(F)(F)CCCCCCCCCCCn1cc[n+](Cc2c(Cl)cccc2Cl)c1.[Cl-] [IB-1],0.71,0.99
Fc1cccc(Cl)c1C[n+]1ccn(CCCCCCCCCCCC(F)(F)C(F)(F)C(F)(F)F)c1.[Cl-] [IB-2],0.82,1.45
COc1ccc(F)cc1C[n+]1ccn(CCCCCCCCCCCC(F)(F)C(F)(F)C(F)(F)F)c1.[Br-] [IB-3],0.64,1.70
Cc1n(CCCCCCCCCCCC(F)(F)C(F)(F)C(F)(F)F)cc[n+]1Cc1c(F)cccc1Cl.[Cl-] [IB-5],0.70,1.85
CC(C)c1n(CCCCCCCCCCCC(F)(F)C(F)(F)C(F)(F)F)cc[n+]1Cc1c(Cl)cccc1Cl.[Cl-] [IB-7],0.87,1.93
CC(C)c1n(CCCCCCCCCCCC(F)(F)C(F)(F)C(F)(F)F)cc[n+]1Cc1c(F)cccc1Cl.[Cl-] [IB-8],0.90,1.23
COc1ccc(F)cc1C[n+]1ccn(CCCCCCCCCCCC(F)(F)C(F)(F)C(F)(F)F)c1C(C)C.[Br-] [IB-9],0.27,1.07
Cl.FC(F)(F)C(F)(F)C(F)(F)CCCCCCCCCCCn1cc[n+](Cc2c(Cl)cccc2Cl)c1C1CC1 [IB-10],0.35,1.94
Fc1cccc(Cl)c1C[n+]1ccn(CCCCCCCCCCCC(F)(F)C(F)(F)C(F)(F)F)c1C1CC1.[Cl-] [IB-11],0.41,1.11
Br.COc1ccc(F)cc1C[n+]1ccn(CCCCCCCCCCCC(F)(F)C(F)(F)C(F)(F)F)c1C1CC1 [IB-12],0.50,1.18
Cl.FC(F)(F)C(F)(F)C(F)(F)C(F)(F)CCCCCCCCCCCn1cc[n+](Cc2c(Cl)cccc2Cl)c1 [IB-13],0.57,1.31
Cl.Fc1cccc(Cl)c1C[n+]1ccn(CCCCCCCCCCCC(F)(F)C(F)(F)C(F)(F)C(F)(F)F)c1 [IB-14],0.50,1.57
Cc1n(CCCCCCCCCCCC(F)(F)C(F)(F)C(F)(F)C(F)(F)F)cc[n+]1Cc1c(F)cccc1Cl.[Cl-] [IB-17],0.72,1.42
Cc1n(CCCCCCCCCCCC(F)(F)C(F)(F)C(F)(F)C(F)(F)F)cc[n+]1Cc1c(Cl)cccc1Cl.[Br-] [IB-18],0.65,1.45
COc1ccc(F)cc1C[n+]1ccn(CCCCCCCCCCCC(F)(F)C(F)(F)C(F)(F)C(F)(F)F)c1C.[Br-] [IB-20],0.82,1.22
Cc1n(CCCCCCCCCCCC(F)(F)C(F)(F)C(F)(F)C(F)(F)F)cc[n+]1Cc1c(Cl)cccc1Cl.[I-] [IB-21],1.73,0.35

SMILES,"Degree of AMPK activation, p-ACC/ACC","Degree of AMPK activation, p-AMPKα/AMPK"
Cc1n(CCCCCCCCCCCC(F)(F)C(F)(F)C(F)(F)C(F)(F)F)cc[n+]1Cc1c(F)cccc1Cl.[I-] [IB-22],1.08,0.44
COc1ccc(F)cc1C[n+]1ccn(CCCCCCCCCCCC(F)(F)C(F)(F)C(F)(F)C(F)(F)F)c1C.[I-] [IB-23],1.50,0.49
CC(C)c1n(CCCCCCCCCCCC(F)(F)C(F)(F)C(F)(F)C(F)(F)F)cc[n+]1Cc1c(Cl)cccc1Cl.[Cl-] [IB-24],1.60,0.64
CC(C)c1n(CCCCCCCCCCCC(F)(F)C(F)(F)C(F)(F)C(F)(F)F)cc[n+]1Cc1c(F)cccc1Cl.[Cl-] [IB-25],1.10,0.58
COc1ccc(F)cc1C[n+]1ccn(CCCCCCCCCCCC(F)(F)C(F)(F)C(F)(F)C(F)(F)F)c1C(C)C.[Br-] [IB-26],1.04,0.94
FC(F)(F)C(F)(F)C(F)(F)C(F)(F)CCCCCCCCCCCn1cc[n+](Cc2c(Cl)cccc2Cl)c1C1CC1.[Cl-] [IB-27],1.06,0.95
COc1ccc(F)cc1C[n+]1ccn(CCCCCCCCCCCC(F)(F)C(F)(F)C(F)(F)C(F)(F)F)c1C1CC1.[Br-] [IB-29],0.81,0.76
Cc1n(CCCCCCCCCCCC(F)(F)C(F)(F)C(F)(F)C(F)(F)C(F)(F)F)cc[n+]1Cc1c(Cl)cccc1Cl.[Br-] [IB-35],1.15,1.02
Cc1n(CCCCCCCCCCCC(F)(F)C(F)(F)C(F)(F)C(F)(F)C(F)(F)F)cc[n+]1Cc1c(F)cccc1Cl.[I-] [IB-39],1.51,1.50
COc1ccc(F)cc1C[n+]1ccn(CCCCCCCCCCCC(F)(F)C(F)(F)C(F)(F)C(F)(F)C(F)(F)F)c1C.[I-] [IB-40],1.65,1.06
CC(C)c1n(CCCCCCCCCCCC(F)(F)C(F)(F)C(F)(F)C(F)(F)C(F)(F)F)cc[n+]1Cc1c(F)cccc1Cl.[Cl-] [IB-42],1.50,1.03
Fc1cccc(Cl)c1C[n+]1ccn(CCCCCCCCCCCC(F)(F)C(F)(F)C(F)(F)C(F)(F)C(F)(F)F)c1C1CC1.[Cl-] [IB-45],2.22,0.54
COc1ccc(F)cc1C[n+]1ccn(CCCCCCCCCCCC(F)(F)C(F)(F)C(F)(F)C(F)(F)C(F)(F)F)c1C1CC1.[Br-] [IB-46],1.73,0.57
COc1ccc(F)cc1C[n+]1ccn(CCCCCCCCCCCC(F)(F)C(F)(F)C(F)(F)C(F)(F)C(F)(F)C(F)(F)F)c1C.[Br-] [IB-52],0.98,0.83
CC(C)c1n(CCCCCCCCCCCC(F)(F)C(F)(F)C(F)(F)C(F)(F)C(F)(F)C(F)(F)F)cc[n+]1Cc1c(Cl)cccc1Cl.Cl [IB-53],1.23,0.76
Br.COc1ccc(F)cc1C[n+]1ccn(CCCCCCCCCCCC(F)(F)C(F)(F)C(F)(F)C(F)(F)C(F)(F)C(F)(F)F)c1C(C)C [IB-55],1.98,0.87
Cl.FC(F)(F)C(F)(F)C(F)(F)C(F)(F)C(F)(F)C(F)(F)CCCCCCCCCCCn1cc[n+](Cc2c(Cl)cccc2Cl)c1C1CC1 [IB-56],0.99,0.85
Cc1n(CCCCCCCCCCCC(F)(F)C(F)(F)C(F)(F)C(F)(F)C(F)(F)F)cc[n+]1Cc1c(Cl)cccc1Cl [IB-59],1.04,0.98

# Source: patent publication US12673921B2, “Substituted fluorine-containing imidazole salt compound, preparation method therefor, pharmaceutical composition thereof and use thereof” (XIAMEN VIVOHEALTHS TECHNOLOGY CO., LTD., priority 2019, dated 2026)
